# Results as given in patent publication US9796711B2, “Substituted pyrazolo[3,4-b]pyridin-6-carboxylic acids and method of use” (AbbVie S.àr.l., priority 2015, dated 2017).
# Columns and labels:
# ΔF508-CFTR [1] = target: T1, ΔF508-CFTR (Homo sapiens, UniProt P13569, DEL508-508); assay: CFTR cell surface levels using HRP-tagged ΔF508-CFTR expressing CFBE cells, in the presence of a co-corrector; assay type: cell-based; details: HRP-tagged ΔF508-CFTR expressing CFBE cells, in the presence of 3 μM co-corrector; for EC50: read-out: EC50
# T1 construct: host or cells: CFBE41o-, doxycycline-inducible
# T1 sequence (P13569 with tags, fused parts or gaps DEL508-508): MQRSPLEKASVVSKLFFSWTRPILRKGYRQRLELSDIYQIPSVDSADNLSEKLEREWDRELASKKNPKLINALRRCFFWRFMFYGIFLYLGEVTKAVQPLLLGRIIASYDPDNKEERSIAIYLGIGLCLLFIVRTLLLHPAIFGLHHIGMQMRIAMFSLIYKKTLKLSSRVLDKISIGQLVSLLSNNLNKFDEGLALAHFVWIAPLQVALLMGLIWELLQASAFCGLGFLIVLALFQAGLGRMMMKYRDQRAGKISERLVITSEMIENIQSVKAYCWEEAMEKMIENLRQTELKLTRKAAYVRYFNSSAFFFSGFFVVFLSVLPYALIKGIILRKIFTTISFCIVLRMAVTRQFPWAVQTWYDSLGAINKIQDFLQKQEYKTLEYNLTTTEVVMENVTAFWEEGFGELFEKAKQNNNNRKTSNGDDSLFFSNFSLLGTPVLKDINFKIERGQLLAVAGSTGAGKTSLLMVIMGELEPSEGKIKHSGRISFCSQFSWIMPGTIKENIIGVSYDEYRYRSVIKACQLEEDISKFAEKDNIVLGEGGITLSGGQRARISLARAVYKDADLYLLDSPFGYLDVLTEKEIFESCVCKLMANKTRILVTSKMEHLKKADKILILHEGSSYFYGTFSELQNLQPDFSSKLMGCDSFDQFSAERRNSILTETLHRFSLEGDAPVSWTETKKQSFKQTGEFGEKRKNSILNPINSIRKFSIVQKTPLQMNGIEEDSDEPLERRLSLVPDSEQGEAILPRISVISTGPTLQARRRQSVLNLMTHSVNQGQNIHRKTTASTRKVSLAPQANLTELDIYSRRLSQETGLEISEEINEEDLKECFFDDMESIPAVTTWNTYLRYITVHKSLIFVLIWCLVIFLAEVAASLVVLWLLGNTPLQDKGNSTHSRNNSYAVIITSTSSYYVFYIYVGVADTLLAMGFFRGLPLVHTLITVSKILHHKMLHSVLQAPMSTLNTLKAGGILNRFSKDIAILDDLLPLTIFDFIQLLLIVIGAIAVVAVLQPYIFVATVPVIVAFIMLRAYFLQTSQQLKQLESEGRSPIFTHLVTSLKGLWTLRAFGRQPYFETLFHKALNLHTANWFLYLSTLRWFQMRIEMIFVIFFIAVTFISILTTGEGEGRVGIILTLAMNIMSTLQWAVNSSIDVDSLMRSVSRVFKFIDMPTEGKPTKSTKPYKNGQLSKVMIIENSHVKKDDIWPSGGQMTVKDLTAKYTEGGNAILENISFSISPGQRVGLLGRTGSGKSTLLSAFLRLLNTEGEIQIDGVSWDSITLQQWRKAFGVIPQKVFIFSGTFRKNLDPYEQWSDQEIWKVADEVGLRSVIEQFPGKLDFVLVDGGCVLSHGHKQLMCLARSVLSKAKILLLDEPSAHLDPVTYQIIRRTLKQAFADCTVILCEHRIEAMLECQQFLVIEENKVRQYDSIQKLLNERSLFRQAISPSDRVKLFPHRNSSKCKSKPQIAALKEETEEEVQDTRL
# How it was run: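 Cells were seeded with 0.5 μg/mL doxycycline and held 68 h at 37 °C. Test compounds plus 3 μM co-corrector (final 0.1% DMSO) were then added for 20 h at 33 °C. Washed cells received HRP substrate, and luminescence was normalized between DMSO and 3 μM co-corrector controls.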
# ΔF508-CFTR [2] = target: T1, ΔF508-CFTR; assay: CFTR cell surface levels using HRP-tagged ΔF508-CFTR expressing CFBE cells, intrinsic corrector capacity; assay type: cell-based; details: for EC50: read-out: EC50
# How it was run: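 Here the cells express ΔF508-CFTR with horseradish peroxidase inserted in extracellular loop 4, so only rescued channel at the surface gives luminescent signal. Compounds act on their own, 20 h at the reduced temperature of 33 °C; values are percent activity relative to DMSO and a 3 μM corrector.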
# [3] = HRP-tagged ΔF508-CFTR expressing CFBE cells, intrinsic corrector capacity (no co-corrector), 33° C., 20 hours
# [4] = HRP-tagged ΔF508-CFTR CFBE41o- cells, compounds alone (intrinsic corrector capacity), 20 hours at 33° C., positive control 3 μM corrector
# [5] = HRP-tagged ΔF508-CFTR CFBE41o- cells, compounds alone (intrinsic corrector capacity), 20 hours at 33° C.
SMILES,% Activation (ΔF508-CFTR [1]) [%],EC50 (ΔF508-CFTR [1]) [nM],% Activation (ΔF508-CFTR [2]; [3]) [%],EC50 (ΔF508-CFTR [2]; [3]) [nM],% Activation (ΔF508-CFTR [2]; [4]) [%],EC50 (ΔF508-CFTR [2]; [5]) [nM]
"CC(C)OC(=O)N1CC[C@@H]2CN(c3cc(C(=O)O)nc4c3c(C3CCC3)nn4-c3ccccc3)CC[C@@H]21 (racemic) [compound 610, rac-3-cyclobutyl-1-phenyl-4-[(3aR,7aS)-1-{[(propan-2-yl)oxy]carbonyl}octahydro-5H-pyrrolo[3,2-c]pyridin-5-yl]-1H-pyrazolo[3,4-b]pyridine-6-carboxylic acid]",539.05,44.8,262.4,123,,
"CC(C)c1nn(-c2cccc(N3CCOCC3)c2)c2nc(C(=O)O)cc(-c3ccc(N(C)C)nc3)c12 [compound 89, 4-[6-(dimethylamino)pyridin-3-yl]-1-[3-(morpholin-4-yl)phenyl]-3-(propan-2-yl)-1H-pyrazolo[3,4-b]pyridine-6-carboxylic acid]",482.05,1240,,,310.15,2530
"Cc1nn(-c2ccccc2)c2nc(C(=O)O)cc(N3CCCCC3)c12 [compound 123, 3-methyl-1-phenyl-4-(piperidin-1-yl)-1H-pyrazolo[3,4-b]pyridine-6-carboxylic acid]",267.95,2690,,,107.95,3280
"CC(C)c1nn(-c2cccc(N3CCC3)c2)c2nc(C(=O)O)cc(-c3ccc(N4CCOCC4)cc3)c12 [compound 151, 1-[3-(azetidin-1-yl)phenyl]-4-[4-(morpholin-4-yl)phenyl]-3-(propan-2-yl)-1H-pyrazolo[3,4-b]pyridine-6-carboxylic acid]",562.6,644,,,322.03,354
"CC(C)c1nn(C2CCCCC2)c2nc(C(=O)O)cc(-c3ccc(N(C)C4CCOCC4)nc3)c12 [compound 169, 1-cyclohexyl-4-{6-[methyl(oxan-4-yl)amino]pyridin-3-yl}-3-(propan-2-yl)-1H-pyrazolo[3,4-b]pyridine-6-carboxylic acid]",436.5,302,,,217.88,448
"Cc1cccc(-n2nc(C(C)C)c3c(N4CCC(C#N)CC4)cc(C(=O)O)nc32)c1 [compound 191, 4-(4-cyanopiperidin-1-yl)-1-(3-methylphenyl)-3-(propan-2-yl)-1H-pyrazolo[3,4-b]pyridine-6-carboxylic acid]",375.1,481,,,208.12,998
"COC1CCN(c2cc(C(=O)O)nc3c2c(C(C)C)nn3-c2cccc(C)c2)CC1 [compound 192, 4-(4-methoxypiperidin-1-yl)-1-(3-methylphenyl)-3-(propan-2-yl)-1H-pyrazolo[3,4-b]pyridine-6-carboxylic acid]",439.45,274,,,276.92,424
"CC(C)c1nn(-c2ccnc(N3CCOCC3)c2)c2nc(C(=O)O)cc(-c3ccc(N4CCOCC4)cc3)c12 [compound 201, 4-[4-(morpholin-4-yl)phenyl]-1-[2-(morpholin-4-yl)pyridin-4-yl]-3-(propan-2-yl)-1H-pyrazolo[3,4-b]pyridine-6-carboxylic acid]",439.85,288,,,251.3,596
"CC(C)c1nn(-c2cccc(N3CCOCC3)c2)c2nc(C(=O)O)cc(-c3cnc(N4CCC(C#N)CC4)nc3)c12 [compound 204, 4-[2-(4-cyanopiperidin-1-yl)pyrimidin-5-yl]-1-[3-(morpholin-4-yl)phenyl]-3-(propan-2-yl)-1H-pyrazolo[3,4-b]pyridine-6-carboxylic acid]",589.7,844,,,402.1,1110
